Laboratory results published in US20240325330A1, “NEW METHOD TO TREAT ACIDOSIS RELATED DISEASES WITH ACETOACETATE” (INSTITUT NATIONAL DE LA SANTÉ ET DE LA RECHERCHE MÉDICALE, priority 2021, published 2024).

Columns and labels:
[1] = system: human monocytes differentiated into macrophages under lactic acidosis (LA-Mφ); assay: Autophagy assessed by TEM or molecularly (LC3, p62 western blot, mRNA); format: cell-based; settings: day 3 LA-Mφ+AcAc relative to Mφ; data not shown
Description: Peripheral blood mononuclear cells (PBMC) were obtained from healthy human volunteers (Blood collection center, Angers, France; agreement ANG-2017-01) by standard density-gradient centrifugation on lymphocyte separation medium (Eurobio, Courtaboeuf, France). CD14+ monocytes were then isolated by positive magnetic cell-sorting (Miltenyi Biotec, Bergisch Gladbach, Germany). […]
Cells were lysed in Trizol reagent (Life Technologies, Thermo Fisher Scientific), and total RNA was extracted with the RNeasy Micro kit (Qiagen, Hilden, Germany) and then reverse-transcribed with the Superscript II reverse transcriptase (Life Technologies). Levels of mRNA encoding the indicated proteins were then analyzed by subjecting the cDNA obtained by reverse transcription to qPCR. Relative quantification was performed by the 2^−ΔΔCT method, with RPS18, EF1A, TBP, RPL13A and PPIA as references. Results are expressed as relative mRNA levels.
Levels of LC3-I, LC3-II, p62, β-actin, AMPKα and pAMPKα were evaluated by western blotting. […] Protein loading was assessed by probing the membrane with a rabbit anti-β-actin antibody (Abcam, Cambridge, UK). Bound antibodies were detected by incubation with 1 μg/mL peroxidase-conjugated anti-rabbit or anti-mouse IgG antibody (Life Technologies) or with an anti-AMPK Ab, with the SuperSignal West Femto system (Thermo Fisher Scientific). […]

[2] = system: PBMC from septic shock patients; assay: Apoptosis of PBMC from septic shock patients (7-AAD, Annexin-V flow cytometry); format: cell-based, human; settings: 5 mM AcAc, FIG. 4E
Experimental: Apoptosis was assessed by flow cytometry in freshly purified PBMC or after 3-day culture with or without AcAc. Cells were labeled with 7-AAD, Annexin-V FITC and anti-CD14 APC monoclonal antibody (all from BD Biosciences, San Jose, CA) and apoptotic monocytes were defined as CD14+ Annexin-V+ cells.
Peripheral blood mononuclear cells (PBMC) from septic patients and healthy subjects were purified by standard density-gradient centrifugation on lymphocyte separation medium (Eurobio, Courtaboeuf, France). PBMC were cultured for 24 h in a medium consisting of RPMI 1640 medium with L-glutamine and without glucose (Lonza, Verviers, Belgium) and supplemented with 6% FCS (Eurobio), 3% autologous plasma, 0.5 g/L glucose, 100 U/mL penicillin and 100 μg/mL streptomycin (all from Lonza) in the presence of 2 ng/mL GM-CSF (R&D Systems). In some experiments, the culture medium was supplemented with 5 mM AcAc or adjusted to 4 g/L glucose. After 24 h culture, the percentage of cells with depolarized mitochondria was assessed as described above. After 3 days of culture, intracellular ATP has been quantified as described above.

[3] = system: human monocytes differentiated into macrophages under lactic acidosis (LA-Mφ); assay: Oxygen consumption rate (XF96 extracellular flux analyzer); format: cell-based; settings: LA-Mφ+AcAc compared to LA-Mφ
Experimental: Peripheral blood mononuclear cells (PBMC) were obtained from healthy human volunteers (Blood collection center, Angers, France; agreement ANG-2017-01) by standard density-gradient centrifugation on lymphocyte separation medium (Eurobio, Courtaboeuf, France). CD14+ monocytes were then isolated by positive magnetic cell-sorting (Miltenyi Biotec, Bergisch Gladbach, Germany). Monocytes (1×10^6 cells/mL) were cultured in complete medium (CM) consisting of RPMI 1640 (Lonza, Verviers, Belgium) supplemented with 10% fetal calf serum (FCS) (Eurobio), 2 mM L-glutamine, 1 mM sodium pyruvate, 0.1 mM non-essential amino acids, 10 mM HEPES, 100 U/mL penicillin and 100 μg/mL streptomycin (all from Lonza) in the presence of 50 ng/mL GM-CSF (R&D Systems, Minneapolis, MN). […]
We used an XF96 extracellular flux analyzer (Agilent Technologies, Santa Clara, CA) to determine the bioenergetic profile of cells. […] Oxygen consumption rate (OCR) was recorded, to assess mitochondrial respiratory activity and glycolytic activity. OCR was recorded in basal conditions, and the cells were then treated sequentially with 2 μg/mL oligomycin, and 3 μM carbonyl cyanide p-(trifluoromethoxy) phenylhydrazone (FCCP) (both from Sigma-Aldrich). […]

Question: Which results are given for `CC(=O)CC(=O)[O-].[Li+]` [AcAc, lithium acetoacetate]?
Answer: autophagy [1]: not upregulated; protection of patient PBMCs from death by apoptosis [2]: drastically protects; OCR consumption [3]: induced
